Literature values, collected in patent US10940187B2, “Method of treatment of schizophreniform disorder” (Curemark, LLC, priority 2011, dated 2021).
Read-outs that look alike come from different tables or passages of the source.

Tests used:
ckr mice = conditions: for spontaneous hyperactivity of ckr mice: dose dependent effects
control mice = conditions: monitored during the dark cycle

Question: For `O=C1CCc2ccc(OCCCCN3CCN(c4cccc(Cl)c4Cl)CC3)cc2N1` [aripiprazole], which “locomotor activity, post-hoc Dunnett's test vs vehicle control” value (“locomotor activity … vs vehicle control” below) (ckr mice; 15 mg/kg) is on record?
Answer: did not significantly suppress

Question: And the motor activity (ckr mice; 15 mg/kg)?
Answer: increase in motor activity

Question: What about the “locomotor activity … vs vehicle control” value (ckr mice; 30 mg/kg) of the same compound?
Answer: significantly suppressed

Question: And the motor activity (ckr mice; 30 mg/kg)?
Answer: suppression of motor activity

Question: And the “overall suppression of motor function (observational)” value (ckr mice; 30 mg/kg)?
Answer: severe sedation

Question: And the “locomotor activity of ckr mice” value (ckr mice; across doses, F6,54_4.626, P_0.001)?
Answer: dose-dependently reduced

Question: And the “ED50 for initial suppression of locomotor activity” value (ckr mice; curve fitted to subset of data, doses 1.67 to 10 mg/kg, fit failed to correlate with observed values)?
Answer: 2.695 mg/kg

Question: And the “spontaneous hyperactivity of ckr mice” value (ckr mice)?
Answer: dose-dependently suppressed

Question: And the “locomotor activity … vs vehicle control” value (ckr mice; doses of 3-10 mg/kg)?
Answer: significantly reduced

Question: And the motor activity (ckr mice; lower doses 1.67-10 mg/kg)?
Answer: dose-dependent reduction

Question: And the “shape of dose-response on hyperactivity” value (ckr mice; suppression at low doses, little effect at intermediate doses, suppression at high doses)?
Answer: tri-phasic dose-response

Question: With `O=C(CCCN1CCC(O)(c2ccc(Cl)cc2)CC1)c1ccc(F)cc1` [haloperidol] as the compound, how does the “spontaneous hyperactivity of ckr mice” value (ckr mice) read?
Answer: dose-dependently suppressed

Question: And the “locomotor activity of control mice” value (control mice)?
Answer: did not produce a significant suppression

Question: Which “spontaneous hyperactivity of ckr mice” value (ckr mice) does the source give for `OCCOCCN1CCN(C2=Nc3ccccc3Sc3ccccc32)CC1` [quetiapine] here?
Answer: dose-dependently suppressed

Question: For `Cc1nc2n(c(=O)c1CCN1CCC(c3noc4cc(F)ccc34)CC1)CCCC2` [risperidone], which “spontaneous hyperactivity of ckr mice” value (ckr mice) is on record?
Answer: dose-dependently suppressed

Question: With `O=C1Cc2cc(CCN3CCN(c4nsc5ccccc45)CC3)c(Cl)cc2N1` [ziprasidone] as the compound, how does the “spontaneous hyperactivity of ckr mice” value (ckr mice) read?
Answer: dose-dependently suppressed
